Patent publication US20210315893A1 (Galapagos NV, priority 2017, published 2021)

Key:
[1] = molecular target: T1, human GPCR sphingosine 1-phosphate receptor 1 (Homo sapiens, UniProt P21453); experiment: S1PR1 selectivity Ca2+ flux assay (antagonist readout); type: cell-based; conditions: antagonist readout, CHO cells overexpressing human S1PR1 and Gq, S1P at EC80 (6 nM); read-out: S1P1 EC50 (nM), S1P1 antagonist EC50
T1 construct: host or cells: CHO
Method in brief: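 Antagonist mode: S1P challenge follows 15 min compound preincubation at 37 °C. Cells are CHO stably expressing human S1PR1, serum-starved 1 h (0.1% FAF BSA), loaded with Fluo 8. Peak-over-baseline fluorescence ratio is normalized to positive/negative controls; IC50 from logistic curve fit.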

S1PR2 = molecular target: T2, S1PR2 (Homo sapiens, UniProt O95136); experiment: S1PR2 binding assay (competition with radioactively labeled S1P, SpA); conditions: membranes from stable cell line over expressing S1PR2, SpA beads; read-out: S1P2 EC50 (nM), S1PR2 binding EC50
T2 construct: expressed in transfected cells
Method in brief: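 Scintillation proximity read-out after 2 h room-temperature incubation of compound, [3H]S1P and S1PR2-overexpressing cell membranes on WGA-coated beads. Buffer: 20 mM Tris pH 7.5, 100 mM NaCl, 10 mM MgCl2, 1 mM Na3VO4, 0.4% fatty-acid-free BSA; plates counted immediately after centrifugation.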

HFL-1 cells [2] = experiment: IL-8 production assay (S1P induced IL-8); type: cell-based; conditions: Homo sapiens, HFL1; S1P (1 μM) induced IL-8 in HFL-1 cells, starvation medium without HSA; read-out: IL8 EC50
Method in brief: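 HFL-1 fibroblasts in low-serum medium were pretreated 1 h with a 10-point 1/3 series of compound starting at 30 μM (0.3% DMSO).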

HFL-1 cells [3] = experiment: IL8 assay in the presence of Human Serum Albumin; conditions: HFL1, read-out: HSA IL8 EC50
[4] = molecular target: T3, human GPCR sphingosine 1-phosphate receptor 2 (Homo sapiens, UniProt O95136); experiment: S1PR2 antagonist Ca2+ flux assay; type: cell-based; conditions: antagonist mode, CHO-S1PR2 cells, S1P at EC80, Ca2+ fluorescence; read-out: S1P2 EC50 (nM), S1P2 antagonist EC50
T3 construct: host or cells: CHO
Method in brief: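 Antagonist mode: 15 min after compound addition, S1P (EC80) stimulates Fluo8-loaded, 1 h-starved CHO-S1PR2 cells, Ca2+ read over 3 min; a prior 3-min read checks compound agonism. EC50 from peak/baseline fluorescence ratio, normalised versus vehicle and S1P EC50 (antagonist) or EC100 (agonist).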

[5] = molecular target: T4, human GPCR sphingosine 1-phosphate receptor 5 (Homo sapiens, UniProt Q9H228); experiment: S1PR5 selectivity Ca2+ flux assay (antagonist readout); type: cell-based; conditions: CHO cells overexpressing human S1PR5 and Gq, agonist at EC80 (20 nM), read-out: S1P5 EC50 (nM), S1P5 antagonist EC50
T4 construct: host or cells: CHO
Method in brief: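 Antagonist readout: after 15 min compound preincubation at 37° C, human S1PR5/Gq CHO cells loaded with Fluo 8 dye received an EC80 challenge of S1PR5-specific agonist, and fluorescence was recorded for 3 min. Maximal-over-background ratios, normalized as % inhibition, gave IC50 by logistic fit.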

T2 sequence (O95136 whole entry): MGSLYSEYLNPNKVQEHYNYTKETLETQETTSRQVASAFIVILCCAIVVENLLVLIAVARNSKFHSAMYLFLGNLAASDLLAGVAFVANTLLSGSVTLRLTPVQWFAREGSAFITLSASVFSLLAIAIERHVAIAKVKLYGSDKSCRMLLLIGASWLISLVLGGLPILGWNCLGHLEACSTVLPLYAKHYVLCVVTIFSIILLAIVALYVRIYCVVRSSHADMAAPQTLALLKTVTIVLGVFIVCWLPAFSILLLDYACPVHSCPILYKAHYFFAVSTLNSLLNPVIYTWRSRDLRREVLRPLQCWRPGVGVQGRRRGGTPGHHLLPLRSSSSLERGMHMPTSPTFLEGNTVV
T3 sequence (O95136 whole entry): as above
T4 sequence (Q9H228 whole entry): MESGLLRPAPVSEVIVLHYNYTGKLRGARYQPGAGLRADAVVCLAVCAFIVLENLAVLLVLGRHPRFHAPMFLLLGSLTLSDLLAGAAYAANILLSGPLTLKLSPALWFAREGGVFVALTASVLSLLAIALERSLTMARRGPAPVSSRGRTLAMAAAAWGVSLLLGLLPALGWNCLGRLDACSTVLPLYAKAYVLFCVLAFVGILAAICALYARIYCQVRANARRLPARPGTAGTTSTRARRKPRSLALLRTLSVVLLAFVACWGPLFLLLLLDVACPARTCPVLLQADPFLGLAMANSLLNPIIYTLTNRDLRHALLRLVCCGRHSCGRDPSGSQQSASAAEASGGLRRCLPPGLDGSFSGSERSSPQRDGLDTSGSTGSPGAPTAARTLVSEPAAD
T1 sequence (P21453 whole entry): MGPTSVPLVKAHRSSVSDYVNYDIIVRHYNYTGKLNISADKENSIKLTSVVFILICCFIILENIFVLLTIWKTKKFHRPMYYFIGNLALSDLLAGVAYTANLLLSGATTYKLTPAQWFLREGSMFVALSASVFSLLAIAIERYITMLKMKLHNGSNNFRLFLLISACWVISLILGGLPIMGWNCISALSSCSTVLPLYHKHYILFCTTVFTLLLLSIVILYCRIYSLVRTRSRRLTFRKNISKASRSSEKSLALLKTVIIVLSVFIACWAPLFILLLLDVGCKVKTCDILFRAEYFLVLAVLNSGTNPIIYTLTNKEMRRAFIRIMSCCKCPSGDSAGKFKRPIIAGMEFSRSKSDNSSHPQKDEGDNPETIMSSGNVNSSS

Row | SMILES | EC50 [1] | EC50 (S1PR2) | EC50 (HFL-1 cells [2]) | EC50 (HFL-1 cells [3]) | EC50 [4] | EC50 [5]
1 | N#Cc1cc2[nH]c(Cc3nn(C4CCN(CC(=O)O)C4)c(=O)c4ccccc34)nc2cc1OCC(F)F (stereo not drawn) [Compound 71, 2-[3-[4-[[6-cyano-5-(2,2-difluoroethoxy)-1H-benzimidazol-2-yl]methyl]-1-oxo-phthalazin-2-yl]pyrrolidin-1-yl]acetic acid] | ≥ 19800 nM | 357 nM | 0.157 µM | 0.134 µM | 356 nM | 19800 nM
2 | N#Cc1cc2nc(Cc3nn(CC(=O)O)c(=O)c4ccccc34)cn2cc1OCC1CC1 [Compound 79, 2-[4-[[7-cyano-6-(cyclopropylmethoxy)imidazo[1,2-a]pyridin-2-yl]methyl]-1-oxo-phthalazin-2-yl]acetic acid] | ≥ 19800 nM | 221 nM | 0.0577 µM | 0.503 µM | 82.7 nM | 19800 nM
3 | N#Cc1cc2[nH]c(Cn3cc(C(=O)O)c(=O)c4ccccc43)nc2cc1OCC(F)F [Compound 80, 1-[[6-cyano-5-(2,2-difluoroethoxy)-1H-benzimidazol-2-yl]methyl]-4-oxo-quinoline-3-carboxylic acid] | ≥ 19800 nM | 619 nM | 0.0468 µM | 0.122 µM | 42.3 nM | 19800 nM
4 | CC(C(=O)O)n1nc(Cc2cn3cc(OCC4CC4)c(C#N)cc3n2)c2ccccc2c1=O (stereo not drawn) [Compound 81, 2-[4-[[7-cyano-6-(cyclopropylmethoxy)imidazo[1,2-a]pyridin-2-yl]methyl]-1-oxo-phthalazin-2-yl]propanoic acid] | ≥ 19800 nM | 120 nM | 0.02 µM | 0.151 µM | 22.6 nM | 19800 nM
5 | O=C(O)c1cn(Cc2cn3cc(OCC4CC4)c(Cl)cc3n2)c2ccccc2c1=O [Compound 84, 1-[[7-chloro-6-(cyclopropylmethoxy)imidazo[1,2-a]pyridin-2-yl]methyl]-4-oxo-quinoline-3-carboxylic acid] | ≥ 19800 nM | 459 nM | 0.198 µM | 2.46 µM | 41.9 nM | 19800 nM
6 | O=C(O)Cc1nn(Cc2cn3cc(OCC4CC4)c(Cl)cc3n2)c2cc(F)ccc2c1=O [Compound 101, 2-[1-[[7-chloro-6-(cyclopropylmethoxy)imidazo[1,2-a]pyridin-2-yl]methyl]-7-fluoro-4-oxo-cinnolin-3-yl]acetic acid] | ≥ 19800 nM | 33.2 nM | 0.00674 µM | 0.154 µM | 3.48 nM | 19800 nM
7 | O=C(O)c1cn(Cc2nc3cc(OCC4CC4)c(C(F)(F)F)cc3[nH]2)c2ccccc2c1=O [Compound 106, (1-[[5-(cyclopropyl-methoxy)-6-(trifluoromethyl)-1H-benzimidazol-2-yl]methyl]-4-oxoquinoline-3-carboxylic acid)] | 830 nM | 14.1 nM | 0.00186 µM | 0.0989 µM | 3.45 nM | 19800 nM
8 | CC(C(=O)O)c1nn(Cc2nc3cc(OCC4CC4)c(C#N)cc3[nH]2)c2ccccc2c1=O (stereo not drawn) [Compound 107, 2-[1-[[6-cyano-5-(cyclopropylmethoxy)-1H-benzimidazol-2-yl]methyl]-4-oxo-cinnolin-3-yl]propanoic acid] | 2150 nM | 52.9 nM | 0.000986 µM | 0.00756 µM | 3.49 nM | 19800 nM
9 | N#Cc1cc2[nH]c(Cn3nc(CC(=O)O)c(=O)c4ccccc43)nc2cc1OCC1CC1 [Compound 108, 2-[1-[[6-cyano-5-(cyclopropylmethoxy)-1H-benzimidazol-2-yl]methyl]-4-oxo-cinnolin-3-yl]acetic acid] | 3080 nM | 9.21 nM | 0.00154 µM | 0.00589 µM | 2.94 nM | 19800 nM
10 | O=C(O)Cn1nc(Cc2nc3cc(Cl)c(OCC4CC4)c(F)c3[nH]2)c2ccccc2c1=O [Compound 116, 2-[4-[[5-chloro-6-(cyclopropylmethoxy)-7-fluoro-1H-benzimidazol-2-yl]methyl]-1-oxo-phthalazin-2-yl]acetic acid] | ≥ 19800 nM | 183 nM | 0.0778 µM | 0.566 µM | 25.2 nM | 19900 nM
11 | O=C(O)Cn1nc(Cc2nc3cc(Cl)c(OCC4CC4)cc3[nH]2)c2c(c1=O)CCCC2 [Compound 117, 2-[4-[[5-chloro-6-(cyclopropylmethoxy)-1H-benzimidazol-2-yl]methyl]-1-oxo-5,6,7,8-tetrahydrophthalazin-2-yl]acetic acid] | 1540 nM | 33.2 nM | 0.00096 µM | 0.00883 µM | 8.18 nM | 13200 nM
12 | O=C(O)Cn1nc(Cc2nc3cc(Cl)c(OCC(F)F)cc3[nH]2)c2c(c1=O)CCCC2 [Compound 119, 2-[4-[[5-chloro-6-(2,2-difluoroethoxy)-1H-benzimidazol-2-yl]methyl]-1-oxo-5,6,7,8-tetrahydrophthalazin-2-yl]acetic acid] | ≥ 19800 nM | 23.3 nM | 0.0113 µM | 0.189 µM | 6.58 nM | 19800 nM

Next, values leading:

Row | EC50 [1] | EC50 (S1PR2) | EC50 (HFL-1 cells [2]) | EC50 (HFL-1 cells [3]) | EC50 [4] | EC50 [5] | SMILES
13 | ≥ 19800 nM | 619 nM | 0.0789 µM | 2.28 µM | 37.4 nM | 19800 nM | O=C(O)c1nn(Cc2cn3cc(OCC4CC4)c(Cl)cc3n2)c2ccccc2c1=O [Compound 85, 1-[[7-chloro-6-(cyclopropylmethoxy)imidazo[1,2-a]pyridin-2-yl]methyl]-4-oxo-cinnoline-3-carboxylic acid]
14 | ≥ 19800 nM | 178 nM | 0.283 µM | 0.324 µM | 149 nM | 19800 nM | O=C(O)CN1CCC(n2nc(Cc3cn4cc(OCC5CC5)c(Cl)cc4n3)c3ccccc3c2=O)C1 (stereo not drawn) [Compound 87, 2-[3-[4-[[7-chloro-6-(cyclopropylmethoxy)imidazo[1,2-a]pyridin-2-yl]methyl]-1-oxo-phthalazin-2-yl]pyrrolidin-1-yl]acetic acid]
15 | 4580 nM | 13.3 nM | 0.00111 µM | 0.0291 µM | 5.29 nM | 6610 nM | O=C(O)c1cn(Cc2nc3cc(OCC4CC4)c(Cl)cc3[nH]2)c2ccccc2c1=O [Compound 90, 1-[[6-chloro-5-(cyclopropylmethoxy)-1H-benzimidazol-2-yl]methyl]-4-oxo-quinoline-3-carboxylic acid]
16 | 13200 nM | 32.1 nM | 0.00441 µM | 0.544 µM | 8.99 nM | 19800 nM | CC(C(=O)O)n1nc(Cn2cc3cc(OCC4CC4)c(Cl)cc3n2)c2cc(C#N)ccc2c1=O (stereo not drawn) [Compound 92, 2-[4-[[6-chloro-5-(cyclopropylmethoxy)indazol-2-yl]methyl]-6-cyano-1-oxo-phthalazin-2-yl]propanoic acid]
17 | ≥ 19800 nM | 22.4 nM | 0.00304 µM | 0.0228 µM | 8.99 nM | 19800 nM | CC(C(=O)O)n1nc(Cn2cc3cc(OCC4CC4)c(Cl)cc3n2)c2c(c1=O)CCCC2 (stereo not drawn) [Compound 93, 2-[4-[[6-chloro-5-(cyclopropylmethoxy)indazol-2-yl]methyl]-1-oxo-5,6,7,8-tetrahydrophthalazin-2-yl]propanoic acid]
18 | ≥ 19800 nM | 208 nM | 0.0534 µM | 1.83 µM | 19.4 nM | 19800 nM | O=C(O)C1(n2nc(Cn3cc4cc(OCC5CC5)c(Cl)cc4n3)c3ccccc3c2=O)CC1 [Compound 95, 1-[4-[[6-chloro-5-(cyclopropylmethoxy)indazol-2-yl]methyl]-1-oxo-phthalazin-2-yl]cyclopropanecarboxylic acid]
19 | ≥ 19800 nM | 432 nM | 0.0605 µM | 5.7 µM | 53.4 nM | 19800 nM | COc1ccc2c(Cn3cc4cc(OCC5CC5)c(Cl)cc4n3)nn(C(C)C(=O)O)c(=O)c2c1 (stereo not drawn) [Compound 97, 2-[4-[[6-chloro-5-(cyclopropylmethoxy)indazol-2-yl]methyl]-7-methoxy-1-oxo-phthalazin-2-yl]propanoic acid]
